According to patent US20230100838A1 (Revolution Medicines, Inc., priority 2019, published 2023):

Key:
[1] = molecular target: T1, GDP-loaded K-Ras (1-169) C51S, C80L, C118S (Homo sapiens, UniProt P01116, C118S/C51S/C80L); assay: K-Ras WT (GDP) cross-linking assay (conjugate formation, TOF mass spectrometry); assay type: binding; design: key: 0: No observed x-linking; +: 0 < x ≤ 20; ++: 20 < x ≤ 40; +++: 40 < x ≤ 100; settings: Table 5; percent covalently modified K-Ras by MS; room temperature; typical compound conc. 2, 10, 25 μM, endpoints 1 and 24 h
T1 construct: GDP-loaded K-Ras (1-169) C51S, C80L, C118S
Description: (§1) Protocol: K-Ras G12D(GDP) Cross-Linking Assay
(§2) Note: while the following protocol outlines the procedure for K-Ras G12D(GDP), a person of skill in the art may substitute other Ras proteins, and may also substitute a non-hydrolyzable GTP analog for GDP to study GTP bound Ras protein.
(§3) GDP-loaded K-Ras (1-169) G12D, C51S, C80L, C118S and GDP-loaded K-Ras (1-169) C51S, C80L, C118S were adjusted to 50 μM in K-Ras assay buffer (12.5 mM HEPES, 75 mM NaCl and 1 mM MgCl2 at pH 7.4). A 5 μL aliquot of each protein solution was added to each well of a 96-well microplate containing 40 μL of assay buffer. Initial compound stocks were prepared in DMSO at 100 times their final assay concentration. Compounds were then diluted 10-fold into K-Ras assay buffer to 10 times their final concentration. A 5 μL aliquot of each diluted compound solution was added to each protein solution in the 96-well microplate to initiate the reaction, which then proceeded at room temperature. Typical final compound concentrations were 2, 10, and 25 μM. At each time point, the reactions were analyzed immediately or quenched with 5 μL of a 5% formic acid solution and kept at 4° C. until analysis. Typical assay endpoints were 1 and 24 h.
(§4) Data collection took place on an Agilent 6230 TOF Mass Spectrometer. Complete reactions were injected onto a C4 reverse-phase column to separate protein from buffer components prior to entering the mass spectrometer. The proteins were eluted from the column by increasing acetonitrile fraction in the mobile phase and fed directly into the mass analyzer. Initial analysis of raw data took place in Agilent MassHunter BioConfirm software and consisted of deconvolution of multiple protein charge states with the maximum entropy algorithm, with a mass step of 1 Da. The heights of all deconvoluted protein masses were exported for further data analysis. The percent modification of each protein was then determined by calculating the peak height of the covalently modified K-Ras species as a percentage of the sum total of K-Ras protein peak height.

[2] = molecular target: T2, GDP-loaded K-Ras (1-169) G12D, C51S, C80L, C118S (Homo sapiens, UniProt P01116, C118S/C51S/C80L/G12D); assay: K-Ras G12D(GDP) cross-linking assay (conjugate formation, TOF mass spectrometry); assay type: binding; design: key: 0: No observed x-linking; +: 0 < x ≤ 20; ++: 20 < x ≤ 40; +++: 40 < x ≤ 100; settings: Table 5; percent covalently modified K-Ras by MS; room temperature; typical compound conc. 2, 10, 25 μM, endpoints 1 and 24 h
T2 construct: GDP-loaded K-Ras (1-169) G12D, C51S, C80L, C118S
Description: as §1, §2, §3, §4

| Structure (SMILES) | WT x-linking (%) [1] | G12D x-linking (%) [2] |
| --- | --- | --- |
| CN1CCC[C@H]1COc1nc2c(c(N3CCN(C(=O)[C@H]4CN4)[C@@H](CC#N)C3)n1)CCN(c1cc(O)cc3ccccc13)C2 [Example 114] | 0 | ++ (20 < x ≤ 40) |
| Cc1ccnc(C(C)C)c1-n1c(=O)nc(N2C[C@@H](C)N(C(=O)[C@H]3CN3)C[C@@H]2C)c2cc(F)c(-c3c(O)cccc3F)nc21 [Example 138] | 0 | 0 |
| Cc1cccc2cccc(N3CCc4c(nc(OC[C@@H]5CCCN5C)nc4N4CCN(C[C@H]5CN5)[C@@H](CC#N)C4)C3)c12 [Example 100, 2-((S)-1-(((R)-aziridin-2-yl)methyl)-4-(7-(8-methylnaphthalen-1-yl)-2-(((S)-1-methylpyrrolidin-2-yl)methoxy)-5,6,7,8-tetrahydropyrido[3,4-d]pyrimidin-4-yl)piperazin-2-yl)acetonitrile] | + (0 < x ≤ 20) | + (0 < x ≤ 20) |
| O=C([C@@H]1CN1)N1CCN2c3ncnc4cc(-c5c(O)cccc5F)c(Cl)c(c34)OCC[C@@H]2C1 [Example 134] | + (0 < x ≤ 20) | + (0 < x ≤ 20) |
| Cc1cccc2cccc(N3CCc4c(nc(OC[C@@H]5CCCN5C)nc4N4CC[C@H](NC(=O)[C@H]5CN5)[C@@H](CC#N)C4)C3)c12 [Example 126] | + (0 < x ≤ 20) | + (0 < x ≤ 20) |
| Cc1ccnc(C(C)C)c1-n1c(=O)nc(N2[C@H](C)CN(C(=O)[C@H]3CN3)C[C@H]2C)c2cc(F)c(-c3c(O)cccc3F)nc21 [Example 137] | 0 | 0 |
| COCCN1C[C@H]1C(=O)N1CCN(c2nc(OC[C@@H]3CCCN3C)nc3c2CCN(c2cccc4cccc(C)c24)C3)C[C@@H]1CC#N (stereo partly drawn) [Example 106, 2-((S)-1-((S)-1-(2-methoxyethyl)aziridine-2-carbonyl)-4-(7-(8-methylnaphthalen-1-yl)-2-(((S)-1-methylpyrrolidin-2-yl)methoxy)-5,6,7,8-tetrahydropyrido[3,4-d]pyrimidin-4-yl)piperazin-2-yl)acetonitrile] | + (0 < x ≤ 20) | + (0 < x ≤ 20) |
| CC(=O)N1C[C@@H]1CN1CCN(c2nc(OC[C@@H]3CCCN3C)nc3c2CCN(c2cccc4cccc(C)c24)C3)C[C@@H]1CC#N [Example 119, 2-((S)-1-(((S)-1-acetylaziridin-2-yl)methyl)-4-(7-(8-methylnaphthalen-1-yl)-2-(((S)-1-methylpyrrolidin-2-yl)methoxy)-5,6,7,8-tetrahydropyrido[3,4-d]pyrimidin-4-yl)piperazin-2-yl)acetonitrile] | + (0 < x ≤ 20) | + (0 < x ≤ 20) |
| Cc1ccnc(C(C)C)c1-n1c(=O)nc(N2C[C@@H](C)N(C(=O)[C@@H]3CN3)C[C@@H]2C)c2cc(F)c(-c3c(O)cccc3F)nc21 [Example 143] | 0 | 0 |
| COCC1(N=C=N[C@H]2C[C@H](Nc3nc(OC[C@@H]4CCCN4C)nc4c3CCN(c3cccc5cccc(C)c35)C4)C2)CC1 [Example 152] | + (0 < x ≤ 20) | +++ (40 < x ≤ 100) |
| COc1ccccc1CN=C=N[C@H]1CCN(c2nc(OC[C@@H]3CCCN3C)nc3c2CCN(c2cccc4cccc(C)c24)C3)C[C@@H]1CC#N [Example 103, 2-((3S,4S)-4-((((2-methoxybenzyl)imino)methylene)amino)-1-(7-(8-methylnaphthalen-1-yl)-2-(((S)-1-methylpyrrolidin-2-yl)methoxy)-5,6,7,8-tetrahydropyrido[3,4-d]pyrimidin-4-yl)piperidin-3-yl)acetonitrile] | + (0 < x ≤ 20) | + (0 < x ≤ 20) |
| COC(=O)[C@H]1CN1C(=O)N1CCN(c2nc(OC[C@@H]3CCCN3C)nc3c2CCN(c2cccc4cccc(C)c24)C3)C[C@@H]1CC#N [Example 108, methyl (R)-1-((S)-2-(cyanomethyl)-4-(7-(8-methylnaphthalen-1-yl)-2-(((S)-1-methylpyrrolidin-2-yl)methoxy)-5,6,7,8-tetrahydropyrido[3,4-d]pyrimidin-4-yl)piperazine-1-carbonyl)aziridine-2-carboxylate] | + (0 < x ≤ 20) | + (0 < x ≤ 20) |
| COCCN=C=N[C@H]1CCN(c2nc(OC[C@@H]3CCCN3C)nc3c2CCN(c2cccc4cccc(C)c24)C3)C[C@@H]1CC#N [Example 76, 2-((3S,4S)-4-((((2-methoxyethyl)imino)methylene)amino)-1-(7-(8-methylnaphthalen-1-yl)-2-(((S)-1-methylpyrrolidin-2-yl)methoxy)-5,6,7,8-tetrahydropyrido[3,4-d]pyrimidin-4-yl)piperidin-3-yl)acetonitrile] | ++ (20 < x ≤ 100) | +++ (40 < x ≤ 100) |
| COCCN1C[C@@H]1C(=O)N1CCN(c2nc(OC[C@@H]3CCCN3C)nc3c2CCN(c2cccc4cccc(C)c24)C3)C[C@@H]1CC#N (stereo partly drawn) [Example 105, 2-((S)-1-((R)-1-(2-methoxyethyl)aziridine-2-carbonyl)-4-(7-(8-methylnaphthalen-1-yl)-2-(((S)-1-methylpyrrolidin-2-yl)methoxy)-5,6,7,8-tetrahydropyrido[3,4-d]pyrimidin-4-yl)piperazin-2-yl)acetonitrile] | + (0 < x ≤ 20) | ++ (20 < x ≤ 40) |
| CN1CCC[C@H]1COc1nc2c(c(N3CCN(C(=O)[C@@H]4CN4)[C@@H](CC#N)C3)n1)CCN(c1cc(O)cc3ccccc13)C2 [Example 115] | 0 | + (0 < x ≤ 20) |
| Cc1ccnc(C(C)C)c1-n1c(=O)nc(N2C[C@H](C)N(C(=O)[C@@H]3CN3)C[C@H]2C)c2cc(F)c(-c3c(O)cccc3F)nc21 [Example 144] | 0 | 0 |
| COCC1(N=C=N[C@@H]2CCN(c3nc(OC[C@@H]4CCCN4C)nc4c3CCN(c3cccc5cccc(C)c35)C4)C[C@@H]2CC#N)CC1 [Example 153] | + (0 < x ≤ 20) | ++ (20 < x ≤ 40) |
| Cc1ccnc(C(C)C)c1-n1c(=O)nc(N2[C@@H](C)CN(C(=O)[C@H]3CN3)C[C@@H]2C)c2cc(F)c(-c3c(O)cccc3F)nc21 [Example 136] | + (0 < x ≤ 20) | + (0 < x ≤ 20) |
| Cc1cccc2cccc(N3CCc4c(nc(OC[C@@H]5CCCN5C)nc4N4CC[C@H](NC(=O)[C@@H]5CN5)[C@@H](CC#N)C4)C3)c12 [Example 127] | + (0 < x ≤ 20) | + (0 < x ≤ 20) |
| Cc1cccc2cccc(N3CCc4c(nc(OC[C@@H]5CCCN5C)nc4N4CCN(C(=O)[C@@H]5CN5S(C)(=O)=O)[C@@H](CC#N)C4)C3)c12 (some centres unmarked) [Example 132] | + (0 < x ≤ 20) | + (0 < x ≤ 20) |
| Cc1cccc2cccc(N3CCc4c(nc(OC[C@@H]5CCCN5C)nc4N4CC[C@@H](NC(=O)[C@H]5CN5)[C@@H](CC#N)C4)C3)c12 [Example 125] | + (0 < x ≤ 20) | + (0 < x ≤ 20) |
| Cc1cccc2cccc(N3CCc4c(nc(OC[C@@H]5CCCN5C)nc4N4CC[C@H](NC(=O)C5CN5)C4)C3)c12 (some centres unmarked) [Example 130] | 0 | + (0 < x ≤ 20) |
